Experimental data as given in ChEMBL document CHEMBL3593175, “Bicyclic [3.3.0]-Octahydrocyclopenta[c]pyrrolo Antagonists of Retinol Binding Protein 4: Potential Treatment of Atrophic Age-Related Macular Degeneration and Stargardt Disease” (J Med Chem, 2015).

Experiments:
[1] = target: T1, Retinol-binding protein 4 (Homo sapiens, UniProt P02753); experiment: Displacement of [3H]-retinol from RBP4 (unknown origin) by scintillation proximity assay
[2] = target: T1, Retinol-binding protein 4; experiment: Inhibition of retinol-induced interaction of bacterially expressed MBP-tagged RBP4 (unknown origin) with Eu3+ cryptate labeled TTR by HTRF assay

| IC50 [1] | IC50 [2] | SMILES |
| --- | --- | --- |
| 0.0311 µM | 0.719 µM | Cc1cc(C(=O)O)nc(N2C[C@H]3C[C@@H](c4cccnc4C(F)(F)F)C[C@H]3C2)n1 |
| 0.196 µM |  | Cc1cc(C(=O)O)nc(N2C[C@H]3C[C@@H](c4cccc(F)c4C(F)(F)F)C[C@H]3C2)n1 |
| 0.137 µM | 0.504 µM | Cc1cc(C(=O)O)nc(N2C[C@H]3C[C@@H](c4cccc(F)c4Cl)C[C@H]3C2)n1 |
